Test results reported in patent publication US11629118B2, “Formulations with improved stability” (INSPIRNA, INC., priority 2017, dated 2023).
Values after ≈ are worked out from the molar mass of the structure shown.

What was measured:
[1] = Solubility study of Compound (II) in lipid excipients and surfactants; assay type: physicochemical; conditions: for solubility: thermodynamic from solid
Protocol: Compound (II) HCl and Compound (II) free base was weighed into vials and the appropriate amount of excipient was added to achieve the desired concentration. Heating and sonication was used, if necessary, to achieve clear solutions. Limits of solubility of Compound (II) free base and Compound (II) HCl (amorphous form) are noted in Table 1.

[2] = Binary stressed-stability / compatibility study with excipients; assay type: physicochemical; conditions: in contact with Maisine 35-1 and Gelucire 44/14 (70:30 w/w)
Excerpt: The compatibility of Compound ([…]) with the following solubilizing/emulsifying excipients: Maisine 35-1; Gelucire 44/14; sodium oleate; sodium stearate; vitamin E TPGS; lysine; and sodium EDTA.

physchem = conditions: oil or lipid
Protocol: (§1) A further solubility study of Compound (II) was conducted using lipid excipients and surfactants. Maisine 35-1 (glycerol linoleates):Gelucire 44/14 (lauroyl macrogol-32 glycerides):Lauroglycol 90 (propylene glycol monolaurate) mixtures were tested to explore the optimal combination. The following ranges of each substance were tested: (1) 40-80% (w/w) Maisine 35-1; (2) 20-40% (w/w) Gelucire 44/14; and (3) 0-20% (w/w) Lauroglycol 90.

[3] = Further solubility study in Maisine 35-1:Gelucire 44/14:Lauroglycol 90 mixtures; conditions: 40-80% (w/w) Maisine 35-1; 20-40% Gelucire 44/14; 0-20% Lauroglycol 90
Protocol: as §1

C[C@H](CCOc1cccc(CC(=O)O)c1)N(Cc1cccc(C(F)(F)F)c1Cl)CC(c1ccccc1)c1ccccc1 [Compound (II), 2-{3-[(3R)-3-({[2-chloro-3-(trifluoromethyl)phenyl]methyl}(2,2-diphenylethyl)amino)butoxy]phenyl}acetic acid]
solubility ([1]; aqueous with cosolvent or surfactant or cyclodextrin, excipient Tween-20, read-out: Limit of solubility in Tween-20): > 200 mg/mL
solubility ([1]; aqueous with cosolvent or surfactant or cyclodextrin, excipient Tween-80, read-out: Limit of solubility in Tween-80): > 200 mg/mL
solubility ([1]; aqueous with cosolvent or surfactant or cyclodextrin, excipient VitE-TPGS, read-out: Limit of solubility in VitE-TPGS): > 200 mg/mL
solubility ([1]; oil or lipid, excipient Capryol 90, read-out: Limit of solubility in Capryol 90): > 200 mg/mL
solubility ([1]; oil or lipid, excipient Capryol PGMC, read-out: Limit of solubility in Capryol PGMC): > 200 mg/mL
solubility ([1]; oil or lipid, excipient Cremophor EL, read-out: Limit of solubility in Cremophor EL): > 200 mg/mL
solubility ([1]; oil or lipid, excipient Cremophor RH-40, read-out: Limit of solubility in Cremophor RH-40): > 200 mg/mL
solubility ([1]; oil or lipid, excipient Gelucire 44/14, read-out: Limit of solubility in Gelucire 44/14): > 200 mg/mL
solubility ([1]; oil or lipid, excipient Gelucire 50/13, read-out: Limit of solubility in Gelucire 50/13): 150 mg/mL (≈ 252 mM)
solubility ([1]; oil or lipid, excipient Labrafac Lipo WL 1349, heating and sonication if necessary, read-out: Limit of solubility in Labrafac Lipo WL 1349): > 200 mg/mL
solubility ([1]; oil or lipid, excipient Labrafac PG, read-out: Limit of solubility in Labrafac PG): > 200 mg/mL
solubility ([1]; oil or lipid, excipient Labrafil M 1944 CS, read-out: Limit of solubility in Labrafil M 1944 CS): > 200 mg/mL
solubility ([1]; oil or lipid, excipient Labrafil M 2125 CS, read-out: Limit of solubility in Labrafil M 2125 CS): > 200 mg/mL
solubility ([1]; oil or lipid, excipient Labrafil M 2130 CS, read-out: Limit of solubility in Labrafil M 2130 CS): > 200 mg/mL
solubility ([1]; oil or lipid, excipient Labrasol, read-out: Limit of solubility in Labrasol): > 200 mg/mL
solubility ([1]; oil or lipid, excipient Lauroglycol 90, read-out: Limit of solubility in Lauroglycol 90): > 200 mg/mL
solubility ([1]; oil or lipid, excipient Lauroglycol FCC, read-out: Limit of solubility in Lauroglycol FCC): > 200 mg/mL
solubility ([1]; oil or lipid, excipient Maisine 35-1, read-out: Limit of solubility in Maisine 35-1): > 200 mg/mL
solubility ([1]; oil or lipid, excipient Peceol, read-out: Limit of solubility in Peceol): > 200 mg/mL
solubility ([1]; oil or lipid, excipient Phosal 50-PG, read-out: Limit of solubility in Phosal 50-PG): > 200 mg/mL
solubility ([1]; oil or lipid, excipient Phosal 53 MCT, read-out: Limit of solubility in Phosal 53 MCT): > 200 mg/mL
solubility ([1]; oil or lipid, excipient Plurol Oleique CC 497, read-out: Limit of solubility in Plurol Oleique CC 497): > 200 mg/mL
solubility ([1]; organic solvent or mixture, excipient Ethanol, read-out: Limit of solubility in Ethanol): > 200 mg/mL
solubility ([1]; organic solvent or mixture, excipient PEG-200, read-out: Limit of solubility in PEG-200): > 200 mg/mL
solubility ([1]; organic solvent or mixture, excipient PEG-300, read-out: Limit of solubility in PEG-300): > 200 mg/mL
solubility ([1]; organic solvent or mixture, excipient PEG-400, read-out: Limit of solubility in PEG-400): > 200 mg/mL
solubility ([1]; organic solvent or mixture, excipient Propylene Glycol, read-out: Limit of solubility in Propylene Glycol): > 200 mg/mL
solubility ([1]; organic solvent or mixture, excipient Transcutol, read-out: Limit of solubility in Transcutol): > 200 mg/mL
Degradation ([2]; after 15 days of storage at −20° C.): No significant degradation
Short-term stability ([2]; room temperature (about 20° C.) for 8 days): acceptable
Degradation ([2]; room temperature, by 15 days): approximately 9%
solubility (physchem): > 250 mg/mL

C[C@H](CCOc1cccc(CC(=O)O)c1)N(Cc1cccc(C(F)(F)F)c1Cl)CC(c1ccccc1)c1ccccc1.Cl [Compound (II) HCl salt]
Limit of solubility in Capmul MCM ([1]; excipient Capmul MCM): 50 mg/mL
Limit of solubility in Capryol 90 ([1]; excipient Capryol 90): 150 mg/mL
Limit of solubility in Capryol PGMC ([1]; excipient Capryol PGMC): 150 mg/mL
Limit of solubility in Cremophor EL ([1]; excipient Cremophor EL): 150 mg/mL
Limit of solubility in Cremophor RH-40 ([1]; excipient Cremophor RH-40): 150 mg/mL
Limit of solubility in Ethanol ([1]; excipient Ethanol): 200 mg/mL
Limit of solubility in Gelucire 44/14 ([1]; excipient Gelucire 44/14): 100 mg/mL
Limit of solubility in Gelucire 50/13 ([1]; excipient Gelucire 50/13): 50 mg/mL
Limit of solubility in Labrafil M 1944 CS ([1]; excipient Labrafil M 1944 CS): 25 mg/mL
Limit of solubility in Labrafil M 2125 CS ([1]; excipient Labrafil M 2125 CS): 25 mg/mL
Limit of solubility in Labrafil M 2130 CS ([1]; excipient Labrafil M 2130 CS): 25 mg/mL
Limit of solubility in Labrasol ([1]; excipient Labrasol): 150 mg/mL
Limit of solubility in Lauroglycol 90 ([1]; excipient Lauroglycol 90): 150 mg/mL
Limit of solubility in Lauroglycol FCC ([1]; excipient Lauroglycol FCC): 100 mg/mL
Limit of solubility in Maisine 35-1 ([1]; excipient Maisine 35-1): 150 mg/mL
Limit of solubility in PEG-200 ([1]; excipient PEG-200): 200 mg/mL
Limit of solubility in PEG-300 ([1]; excipient PEG-300): 200 mg/mL
Limit of solubility in PEG-400 ([1]; excipient PEG-400): 200 mg/mL
Limit of solubility in Peceol ([1]; excipient Peceol): 150 mg/mL
Limit of solubility in Phosal 50-PG ([1]; excipient Phosal 50-PG): 200 mg/mL
Limit of solubility in Phosal 53 MCT ([1]; excipient Phosal 53 MCT): 150 mg/mL
Limit of solubility in Plurol Oleique CC 497 ([1]; excipient Plurol Oleique CC 497): 50 mg/mL
Limit of solubility in Propylene Glycol ([1]; excipient Propylene Glycol): 200 mg/mL
Limit of solubility in Transcutol ([1]; excipient Transcutol): 150 mg/mL
Limit of solubility in Tween-20 ([1]; excipient Tween-20): 200 mg/mL
Limit of solubility in Tween-80 ([1]; excipient Tween-80): 200 mg/mL
Limit of solubility in VitE-TPGS ([1]; excipient VitE-TPGS): 150 mg/mL
Solubility in Maisine 35-1:Gelucire 44/14:Lauroglycol 90 mixtures [3]: 150 to 200 mg/mL
